Here are results for 26 compounds from patent US11590116B2 (THERAVANCE BIOPHARMA R&D IP, LLC, priority 2019, dated 2023).

Each structure is given as a SMILES string.

The target of test [1] is T1, recombinant human ALK5 (TGF-βR1) protein (Homo sapiens, UniProt P36897).
T1 construct: purchased Life Technologies PR9075A
T1 sequence (P36897 34-503): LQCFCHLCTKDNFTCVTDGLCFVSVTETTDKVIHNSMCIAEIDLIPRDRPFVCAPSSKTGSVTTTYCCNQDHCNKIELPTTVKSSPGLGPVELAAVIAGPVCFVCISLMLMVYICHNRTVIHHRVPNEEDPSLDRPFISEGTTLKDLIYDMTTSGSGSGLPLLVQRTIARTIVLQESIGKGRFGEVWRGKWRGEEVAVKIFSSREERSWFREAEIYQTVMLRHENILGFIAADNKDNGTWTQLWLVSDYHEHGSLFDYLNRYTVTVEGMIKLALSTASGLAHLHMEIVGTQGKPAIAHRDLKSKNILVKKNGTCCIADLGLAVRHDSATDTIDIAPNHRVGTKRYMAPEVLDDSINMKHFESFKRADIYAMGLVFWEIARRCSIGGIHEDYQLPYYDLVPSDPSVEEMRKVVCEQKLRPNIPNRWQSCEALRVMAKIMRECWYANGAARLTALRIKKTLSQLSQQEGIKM
Put plainly: Biochemical ALK5 (TGF-βR1) assay to measure pKi (LANCE Ultra ULight kinase assay). To be noted: apparent pKi from pIC50 by Cheng-Prusoff, read-out: ALK5 pKi (converted). In a few lines:
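Compounds (10 μM to 25 pM) were preincubated 60 min at room temperature with enzyme, then reactions were started with ATP (125 μM stock, 5× final) and run 60 min at 37 °C. EDTA-containing Eu-anti-phospho-Topo IIα (Thr1342) antibody stopped the reaction; TR-FRET read at 665 nm. pIC50 from 4-parameter fit, converted to pKi via Cheng-Prusoff.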

Test [2] has as its system TGF-β-stimulated SMAD3 phosphorylation in BEAS-2B cells. Put plainly: Cellular ALK5 potency assay, inhibition of TGF-β stimulated pSMAD3 formation in BEAS-2B cells. Type of test: cell-based. To be noted: Homo sapiens; inhibition of TGF-β stimulated pSMAD3 formation, BEAS-2B cells; read-out: BEAS2B pIC50 (converted). Summed up: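 BEAS-2B human lung epithelial cells pre-treated 1 h at 37° C with compound in HBSS/25 mM HEPES/1% BSA, then stimulated 30 min with 10 ng/mL TGF-β (final). Lysates assayed for pSMAD3 by AlphaLISA; pIC50 from dose-dependent change versus stimulated untreated cells.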

With `CCN1CCN(c2cnc3ccc(-c4c[nH]nc4-c4cccc(C)n4)nc3c2)CC1` [Compound 390, 7-(4-ethylpiperazin-1-yl)-2-[3-(6-methyl-2-pyridyl)-1H-pyrazol-4-yl]-1,5-naphthyridine], the Ki in test [1] was 0.0398 to 0.316 nM. The IC50 in test [2] is 25.1 to 158 nM.

With `Cc1cccc(-c2n[nH]cc2-c2ccc3nccc(N)c3n2)n1` [Compound 835, 6-[3-(6-methyl-2-pyridyl)-1H-pyrazol-4-yl]-1,5-naphthyridin-4-amine], the Ki in test [1] is 0.398 to 3.16 nM. In addition, the IC50 in test [2] was 25.1 to 158 nM.

Consider `COC(=O)[C@@H]1CCCN(CCNc2cnc3ccc(-c4nc[nH]c4-c4cccc(C)n4)cc3c2)C1` [Compound 728, methyl (3R)-1-[2-[[6-[5-(6-methyl-2-pyridyl)-1H-imidazol-4-yl]-3-quinolyl]amino]ethyl]piperidine-3-carboxylate], for which the Ki in test [1] was 0.0398 to 0.316 nM. In addition, the IC50 in test [2] was 25.1 to 158 nM.

As to `Cc1cccc(-c2[nH]cnc2-c2ccc3ncc(-c4cc(C(=O)OCC5CNC5)cs4)cc3c2)n1` [Compound 1070, azetidin-3-ylmethyl 5-[6-[5-(6-methyl-2-pyridyl)-1H-imidazol-4-yl]-3-quinolyl]thiophene-3-carboxylate], the Ki in test [1] is < 0.0316 nM. In addition, the IC50 in test [2] is 25.1 to 158 nM.

As to `Cc1cccc(-c2[nH]cnc2-c2ccc3ncc(-c4ccnc(C(=O)O[C@@H]5CCNC5)c4)cc3c2)n1` [Compound 1050, [(3R)-pyrrolidin-3-yl] 4-[6-[5-(6-methyl-2-pyridyl)-1H-imidazol-4-yl]-3-quinolyl]pyridine-2-carboxylate], the Ki in test [1] was 0.0398 to 0.316 nM. The IC50 in test [2] was 200 to 1260 nM.

With `Cc1nc(-c2[nH]cnc2-c2ccc3ncc(-c4cnn(CCN)c4)cc3n2)ccc1F` [Compound 225, 2-[4-[6-[5-(5-fluoro-6-methyl-2-pyridyl)-1H-imidazol-4-yl]-1,5-naphthyridin-3-yl]pyrazol-1-yl]ethanamine], the Ki in test [1] was 0.0398 to 0.316 nM. Moreover, the IC50 in test [2] is 25.1 to 158 nM.

Regarding `Cc1cccc(-c2n[nH]cc2-c2ccc3ncc(-c4ccnc(C#N)c4)cc3n2)n1` [Compound 9, 4-[6-[3-(6-methyl-2-pyridyl)-1H-pyrazol-4-yl]-1,5-naphthyridin-3-yl]pyridine-2-carbonitrile], in test [1], the Ki is < 0.0316 nM. Further, in test [2], the IC50 is < 20 nM.

Consider `CNCCn1cc(-c2cnc3ccc(-c4nc[nH]c4-c4cccc(C)n4)cc3c2)cn1` [Compound 17, N-methyl-2-(4-(6-(5-(6-methylpyridin-2-yl)-1H-imidazol-4-yl)quinolin-3-yl)-1H-pyrazol-1-yl)ethan-1-amine], for which the Ki in test [1] was < 0.0316 nM. Moreover, the IC50 in test [2] was 25.1 to 158 nM.

In the case of `Cc1cccc(-c2[nH]cnc2-c2ccc3ncc(NCCNC4CNC4)cc3c2)n1` [Compound 189, N′-(azetidin-3-yl)-N-[6-[5-(6-methyl-2-pyridyl)-1H-imidazol-4-yl]-3-quinolyl]ethane-1,2-diamine], the Ki in test [1] is 0.0398 to 0.316 nM. Besides, the IC50 in test [2] is 200 to 1260 nM.

With `Cc1ccc(S(=O)(=O)NCC(=O)Nc2cnc3ccc(-c4c[nH]nc4-c4cccc(C)n4)nc3c2)cc1` [Compound 57, N-[6-[3-(6-methyl-2-pyridyl)-1H-pyrazol-4-yl]-1,5-naphthyridin-3-yl]-2-(p-tolylsulfonylamino)acetamide], the Ki in test [1] is 0.0398 to 0.316 nM. Moreover, the IC50 in test [2] is 25.1 to 158 nM.

As for `Cc1cccc(-c2n[nH]cc2-c2ccc3ncc(-c4cc5n(n4)CCN5)cc3n2)n1` [Compound 564, 7-(2,3-dihydro-1H-imidazo[1,2-b]pyrazol-6-yl)-2-[3-(6-methyl-2-pyridyl)-1H-pyrazol-4-yl]-1,5-naphthyridine], the Ki in test [1] was < 0.0316 nM. Moreover, the IC50 in test [2] is < 20 nM.

Consider `Cc1cccc(-c2n[nH]cc2-c2ccc3ncc(-c4cnn5c4NCCC5)cc3n2)n1` [Compound 525, 2-[3-(6-methyl-2-pyridyl)-1H-pyrazol-4-yl]-7-(4,5,6,7-tetrahydropyrazolo[1,5-a]pyrimidin-3-yl)-1,5-naphthyridine], for which the Ki in test [1] was < 0.0316 nM. Also, the IC50 in test [2] was < 20 nM.

On to `CNCCn1cc(-c2cnc3ccc(-c4c(-c5cccc(C)n5)nn5c4CNCC5)cc3c2)cn1` [Compound 327, N-methyl-2-[4-[6-[2-(6-methyl-2-pyridyl)-4,5,6,7-tetrahydropyrazolo[1,5-a]pyrazin-3-yl]-3-quinolyl]pyrazol-1-yl]ethanamine], for which the Ki in test [1] is 0.0398 to 0.316 nM. Moreover, in test [2], the IC50 is 200 to 1260 nM.

`Cc1cccc(-c2[nH]cnc2-c2ccc3ncc(C(=O)OC[C@H]4CCCCN4)cc3c2)n1` [Compound 884, (R)-piperidin-2-ylmethyl 6-(5-(6-methylpyridin-2-yl)-1H-imidazol-4-yl)quinoline-3-carboxylate]: the Ki in test [1] is 0.398 to 3.16 nM. Moreover, the IC50 in test [2] is 25.1 to 158 nM.

Consider `Cc1cccc(-c2n[nH]cc2-c2ccc3ncc(N4CCN(C(C)C)C(C)(C)C4)cc3n2)n1` [Compound 20, 7-(4-isopropyl-3,3-dimethyl-piperazin-1-yl)-2-[3-(6-methyl-2-pyridyl)-1H-pyrazol-4-yl]-1,5-naphthyridine], for which the Ki in test [1] is 3.98 to 31.6 nM. The IC50 in test [2] is 200 to 1260 nM.

On to `Cc1nc(-c2n[nH]cc2-c2ccc3ncc(-c4[nH]nc5c4CCN5)cc3n2)ccc1F` [Compound 515, 2-[3-(5-fluoro-6-methyl-2-pyridyl)-1H-pyrazol-4-yl]-7-(2,4,5,6-tetrahydropyrrolo[2,3-c]pyrazol-3-yl)-1,5-naphthyridine], for which the Ki in test [1] is < 0.0316 nM. Also, the IC50 in test [2] is 25.1 to 158 nM.

For `Cc1nc(-c2n[nH]cc2-c2ccc3ncc(-c4ncc5n4CCN5)cc3n2)ccc1F` [Compound 174, 7-(2,3-dihydro-1H-imidazo[1,2-c]imidazol-5-yl)-2-[3-(5-fluoro-6-methyl-2-pyridyl)-1H-pyrazol-4-yl]-1,5-naphthyridine], the Ki in test [1] was 0.0398 to 0.316 nM. Further, in test [2], the IC50 was 200 to 1260 nM.

As to `Cc1cccc(-c2n[nH]cc2-c2ccc3ncc(-c4c(C)nn(C)c4C)cc3n2)n1` [Compound 426, 2-[3-(6-methyl-2-pyridyl)-1H-pyrazol-4-yl]-7-(1,3,5-trimethylpyrazol-4-yl)-1,5-naphthyridine], the Ki in test [1] is 0.0398 to 0.316 nM. Besides, the IC50 in test [2] is 25.1 to 158 nM.

Take `Cc1cccc(-c2n[nH]cc2-c2ccc3ncc(N4CCC(O)CC4)cc3n2)n1` [Compound 282, 1-[6-[3-(6-methyl-2-pyridyl)-1H-pyrazol-4-yl]-1,5-naphthyridin-3-yl]piperidin-4-ol]: the Ki in test [1] was < 0.0316 nM. Moreover, in test [2], the IC50 was < 20 nM.

For the compound `Cc1cccc(-c2[nH]cnc2-c2ccc3ncc(C(=O)O[C@H]4CCNC4)cc3c2)n1` [Compound 757, [(3S)-pyrrolidin-3-yl] 6-[5-(6-methyl-2-pyridyl)-1H-imidazol-4-yl]quinoline-3-carboxylate], the Ki in test [1] is 0.398 to 3.16 nM. Besides, in test [2], the IC50 was 25.1 to 158 nM.

As for `Cc1cccc(-c2[nH]cnc2-c2ccc3ncc(-c4ccc(C(=O)OC5CNC5)s4)cc3c2)n1` [Compound 1006, azetidin-3-yl 5-(6-(5-(6-methylpyridin-2-yl)-1H-imidazol-4-yl)quinolin-3-yl)thiophene-2-carboxylate], the Ki in test [1] is 0.0398 to 0.316 nM. The IC50 in test [2] was 25.1 to 158 nM.

`Cc1cccc(-c2n[nH]cc2-c2ccc3ncc(NCCN4CCN(C)CC4)cc3n2)n1` [Compound 619, N-[2-(4-methylpiperazin-1-yl)ethyl]-6-[3-(6-methyl-2-pyridyl)-1H-pyrazol-4-yl]-1,5-naphthyridin-3-amine]: the Ki in test [1] is 0.0398 to 0.316 nM. Moreover, the IC50 in test [2] is 25.1 to 158 nM.

In the case of `Cc1cccc(-c2[nH]cnc2-c2ccc3ncc(-c4ccc(C(=O)OCC5CNC5)cc4)cc3c2)n1` [Compound 650, azetidin-3-ylmethyl 4-[6-[5-(6-methyl-2-pyridyl)-1H-imidazol-4-yl]-3-quinolyl]benzoate], the Ki in test [1] is 0.0398 to 0.316 nM. In addition, in test [2], the IC50 is 25.1 to 158 nM.

On to `COc1nc(-c2ccc3ncc(C4=CCC5(CCNCC5)CC4)cc3c2)c(-c2cccc(C)n2)[nH]1` [Compound 1251, 9-[6-[2-methoxy-5-(6-methyl-2-pyridyl)-1H-imidazol-4-yl]-3-quinolyl]-3-azaspiro[5.5]undec-9-ene], for which the Ki in test [1] was < 0.0316 nM. The IC50 in test [2] is 25.1 to 158 nM.

`Cc1cccc(-c2[nH]cnc2-c2ccc3ncc(N4CCC(C(=O)OC5CCNCC5)CC4)cc3c2)n1` [Compound 701, piperidin-4-yl 1-(6-(5-(6-methylpyridin-2-yl)-1H-imidazol-4-yl)quinolin-3-yl)piperidine-4-carboxylate]: the Ki in test [1] was 0.0398 to 0.316 nM. Further, the IC50 in test [2] is 200 to 1260 nM.

Regarding `Cc1cccc(-c2n[nH]cc2-c2ccc3ncc(-c4cccn(C)c4=O)cc3n2)n1` [Compound 12, 1-methyl-3-[6-[3-(6-methyl-2-pyridyl)-1H-pyrazol-4-yl]-1,5-naphthyridin-3-yl]pyridin-2-one], in test [1], the Ki was < 0.0316 nM. In addition, in test [2], the IC50 is < 20 nM.
